Data published in publication PMC11997890, “In Vivo and In Vitro Pharmacokinetic Studies of a Dual Topoisomerase I/II Inhibitor” (ACS Pharmacology & Translational Science, 2025).

Key:
[1] = system: CYP3A4; parameters: method as in not given; details: metabolized by CYP3A4; ref not given; cited from earlier work
[2] = system: OvCar8 spheroids; assay: 3D spheroid viability (RealTime-Glo); assay type: cell-based, human; details: OvCar8 3D spheroids, 48 h
Procedure: Tumor complexity is represented more realistically in 3D spheroid models than in 2D monolayer models.
OvCar8 cells (8000/well) were seeded into an Ultra-Low-Attachment plate (Corning #4520) and grown for 96 h. Then, spheroids were treated with the drugs for 48 h. Cell cytotoxicity was assessed using the CellTox Green Cytotoxicity Assay (Promega #G8731) 48 h after treatment with NYONE ([…], 485Ex/520Em). Filters: BFEx/GreenEm (530/43 nm); BlueEx (475/28 nm)/GreenEm (530/43 nm). Viability and apoptosis were determined by RealTime-Glo (460Em) (Promega #G9711) and caspase-Glo 3/7 (565Em) (Promega #G8090) according to the manufacturer’s instructions using a microplate reader (Spark, Tecan). Relative caspase activity: caspase activity divided by the viability (normalized to control). For live-dead staining, cells were grown and treated as described above. Then, 80% of the medium was removed and replaced with propidium iodide (PI) (15 μM), calcein-AM (0.2 μM), and Hoechst 33342 (1.8 μM) in medium for 3 h and imaged by NYONE ([…]). Filters: BFEx/GreenEm(530/43 nm); Hoechst 33342: UVEx (377/50 nm)/BlueEm (452/45 nm); calcein-AM: BlueEx (475/28 nm)/GreenEm (530/43 nm); propidium iodide: LimeEx(562/40 nm)/RedEm(628/32 nm). All experiments were performed in biological triplicates. PBS was used as the negative control, and cisplatin and P8-D6 as the positive control.

[3] = cited from earlier work; for CL / Oral bioavailability / Protein binding / V ss / t 1/2: literature values, ref numbers not given
[4] = parameters: method as in not given; details: human liver microsomes; ref not given; cited from earlier work

| Structure (SMILES) | CL [3] | Oral bioavailability [3] | Protein binding [3] | V ss [3] | t 1/2 [3] [h] | further results |
| --- | --- | --- | --- | --- | --- | --- |
| O=C(c1cc(Cc2n[nH]c(=O)c3ccccc23)ccc1F)N1CCN(C(=O)C2CC2)CC1 [Olaparib, olaparib] | – | – | – | – | – | rate of three major metabolites [1]: 8–12% |
| N.N.[Cl][Pt][Cl] [cisplatin, reference compound] | – | – | – | – | – | IC50 [2]: 13.5 µM |
| COc1cccc2c1C(=O)c1c(O)c3c(c(O)c1C2=O)C[C@@](O)(C(=O)CO)C[C@@H]3O[C@H]1C[C@H](N)[C@H](O)[C@H](C)O1 [doxorubicin] | 12–34 L/(h m^2) | 5% | 50–85% | 809–1214 L/m^2 | 17.3 to 26 | drug eliminated ([3]; after 7 days, ref not given): 25–45% |
| COc1cc([C@@H]2c3cc4c(cc3[C@@H](O[C@@H]3O[C@@H]5CO[C@@H](C)O[C@H]5[C@H](O)[C@H]3O)[C@H]3COC(=O)[C@H]23)OCO4)cc(OC)c1O [etoposide] | 1–2 L/(h m^2) | 50 (40–75) % | 94–95% | 7.1 (5–17) L/m^2 | 6.4 | – |
| COc1cc2ncnc(Nc3ccc(F)c(Cl)c3)c2cc1OCCCN1CCOCC1 [gefitinib] | – | – | > 97% | – | – | – |
| CCc1c2c(nc3ccc(OC(=O)N4CCC(N5CCCCC5)CC4)cc13)-c1cc3c(c(=O)n1C2)COC(=O)[C@]3(O)CC [irinotecan] | – | – | 65% | – | – | – |
| CC[C@@]1(O)C(=O)OCc2c1cc1n(c2=O)Cc2c-1nc1cc3c(cc1c2CN1CCN(C)CC1)OCCO3 [lurtotecan] | 60 L/(h m^2) | 11.3 ± 5.2% | 90% | 190 L/m^2 | 3.7 | – |
| CC[C@@]1(O)C(=O)OCc2c1cc1n(c2=O)Cc2cc3c(CN(C)C)c(O)ccc3nc2-1 [topotecan] | 14–34 L/(h m^2) | 32–44% | 7–35% | – | 3.1 to 4 | mean ratio of N-demethylated metabolite to topotecan [4]: approximately 3% |
